In patent publication US11590117B2, “Treatment of a hematologic malignancy with 2-(4-chlorophenyl)-n-((2-(2,6-dioxopiperidin-3-yl)-1-oxoisoindolin-5-yl)methyl)-2,2-difluoroacetamide” (priority 2016, dated 2023):
Where two headings read alike, the source gives them in different places.

Key:
Assay in all cases: IncuCyte Kinetic Caspase-3/7 Apoptosis Assay
Format in all cases: cell-based
ML-2 = conditions: Homo sapiens, read-out: Compound 1-induced Apoptosis EC50
Text: (§1) Methods. Acute Myeloid Leukemia Cell Line Panel: Human AML cell lines, AML-193, F36-P, GDM-1, HL-60, HNT-34, Kasumi-1, Kasumi-3, KG-1, KG-1a, ML-2, MOLM-13, MUTZ-8, MV-4-11, NOMO-1, OCI-AML2, OCI-AML3, SIG-M5, TF-1, THP-1, and UT-7 were obtained from American Type Culture Collection (ATCC; Manassas, Va.) and Deutsche Sammlung von Mikroorganismen und Zellkulturen (DSMZ) (Germany) cell banks. The AML panel includes cell line(s) from each FAB classification (M0-M7) (Table 7).
(§2) Cell Culture Conditions: Cell lines were maintained in growth media containing 20% fetal bovine serum (FBS) (Hyclone Cat no. SH30910.03, Lot no. AZF188864; Corning REFno. 35-010-CV, Lot no. 35010124) supplemented with or without 10 ng/mL human recombinant granulocyte-macrophage colony stimulating factor (Sigma-Aldrich Cat no. SRP3050) (Table 8). Medium was purchased from ATCC (Cat no. 30-2001, 30-2002, 30-2003, 30-2005) and Gibco (REF no. 12561-056). Human recombinant granulocyte macrophage colony stimulating factor (GM-CSF) was expressed in Escherichia coli. The cell doubling times for each cell line were provided by ATCC and DSMZ. Cells were maintained in humidified incubators at 5% carbon dioxide (CO2). All cell lines were acclimated to Eagle's minimal essential medium (EMEM)+20% FBS with or without GM-CSF over 2 to 4 weeks prior to live cell imaging using IncuCyte Zoom (Essen Biosciences). The use of EMEM was necessary to eliminate background fluorescence caused by riboflavin in most media.
(§3) Incubation of Cell Cultures with Compound 1: Compound 1 was provided for studies by Celgene chemistry group at a stock concentration of 30 mM in 20 μL dimethyl sulfoxide (DMSO) frozen. Costar 96-well cell culture plates (Corning Cat no. 3595) were coated with 100 μL of 10 µg/mL fibronectin (Sigma-Aldrich Cat no. F1141) for 4 hours at 37° C. and immediately used or refrigerated overnight for later use. Cells (3000 to 6000 cells) were plated in growth medi in fibronectin-coated 96-well plates and incubated for a minimum of a few hours to overnight. Cells were incubated with a 12-point concentration response in triplicate with Compound 1 ([…]) including DMSO and Media controls. A 3-fold serial dilution of Compound 1 starting from a concentration of 200 μM in 0.6% DMSO (diluted in Media) was performed. For most sensitive cell lines, a 3-fold serial dilution of Compound 1 starting from a concentration of 20 μM in 0.6% DMSO (diluted in media) was performed. A volume of 5 μL or 10 μL for each dilution was added to 100 μL or 200 μL cells, respectively (0.3% DMSO final) and incubated for live cell imaging.
(§4) Live Cell Imaging on IncuCyte Zoom: Following incubation of cells with Compound 1, diluted Caspase 3/7 reagent (Essen Biosciences Cat no. 4440) is added to each well. The Caspase-3/7 reagent couples the activated caspase-3/7 recognition motif (DEVD) to NucView™488, a DNA intercalating dye. The cleavage of substrate by activated caspase-3/7 results in the release of the DNA dye and green fluorescent staining of nuclear DNA. This allows imaging of cells undergoing caspase-3/7 mediated apoptosis over time. Caspase-3/7 activation was quantified using the IncuCyte™ ZOOM basic analyzer. Red-labeled cell lines were also imaged over time using the IncuCyte™ ZOOM basic analyzer, for determination of both cell doubling time and Compound 1 effect on cell viability. Experiments were performed at least two times in each cell line.
(§5) Next, a 4 parameter log-logistic model was used to determine relative EC50 at each time point by the ‘drm’ function from the R ‘drc’ package (Ritz C, Streibig J C. Bioassay Analysis using R. J. Statist. Software 2005; 12(5):1-22). Goodness of fit was measured by R squared (coefficient of determination or the amount of variation explained by the model fit) of ≥80%, and EC50 parameter was assessed by having a ratio of standard error to the parameter of ≤40%, and the presence of at least one concentration point above and below the reported EC50. […]

F36-P = conditions: Homo sapiens, read-out: Compound 1-induced Apoptosis EC50
Text: as §1, §2, §3, §4, §5

THP-1 = conditions: Homo sapiens
Text: as §1, §2, §3, §4, §5

MOLM-13 = conditions: Homo sapiens, read-out: Compound 1-induced Apoptosis EC50
Text: as §1, §2, §3, §4, §5

Kasumi-3 = conditions: Homo sapiens, read-out: Compound 1-induced Apoptosis EC50
Text: as §1, §2, §3, §4, §5

Nomo-1 = conditions: Homo sapiens, read-out: Compound 1-induced Apoptosis EC50
Text: as §1, §2, §3, §4, §5

Kasumi-1 = conditions: Homo sapiens, read-out: Compound 1-induced Apoptosis EC50
Text: as §1, §2, §3, §4, §5

OCI-AML3 = conditions: Homo sapiens, read-out: Compound 1-induced Apoptosis EC50
Text: as §1, §2, §3, §4, §5

`O=C1CCC(N2Cc3cc(CNC(=O)C(F)(F)c4ccc(Cl)cc4)ccc3C2=O)C(=O)N1` (stereo not drawn) [Compound 1, 2-(4-chlorophenyl)-N-((2-(2,6-dioxopiperidin-3-yl)-1-oxoisoindolin-5-yl)methyl)-2,2-difluoroacetamide] showed an EC50 (ML-2; 12 hr) of 179 nM, an EC50 (ML-2; 24 hr) of 62 nM and an EC50 (ML-2; 48 hr) of 31 nM. For the same molecule, the EC50 (ML-2; 72 hr) was 21 nM, the EC50 (ML-2; 96 hr) was 25 nM and the EC50 (F36-P; 48 hr) was 335 nM. The EC50 (F36-P; 72 hr) was 252 nM, the EC50 (F36-P; 96 hr) was 229 nM and the EC50 (THP-1; 48 hours, read-out: apoptosis EC50) was greater than 10000 nM. It also gave an EC50 (THP-1; 48 hours, read-out: apoptosis EC50 48hr) greater than 10000 nM, an EC50 (THP-1; all time points, read-out: apoptosis EC50) greater than 10000 nM and an EC50 (MOLM-13; 24 hr) of 916 nM. It also gave an EC50 (MOLM-13; 48 hr) of 368 nM, an EC50 (MOLM-13; 72 hr) of 156 nM and an EC50 (MOLM-13; 96 hr) of 79 nM. The EC50 (Kasumi-3; 12 hr) was 54 nM, the EC50 (Kasumi-3; 24 hr) was 10 nM and the EC50 (Kasumi-3; 48 hr) was 4 nM. For the same molecule, the EC50 (Kasumi-3; 72 hr) was 3 nM, the EC50 (Kasumi-3; 96 hr) was 1 nM and the EC50 (Nomo-1; 24 hr) was 63 nM. It also gave an EC50 (Nomo-1; 48 hr) of 133 nM, an EC50 (Nomo-1; 72 hr) of 84 nM and an EC50 (Nomo-1; 96 hr) of 66 nM. It also gave an EC50 (Kasumi-1; 48 hr) of 124 nM, an EC50 (Kasumi-1; 72 hr) of 254 nM and an EC50 (Kasumi-1; 96 hr) of 55 nM. For the same molecule, the EC50 (OCI-AML3; OCI-AML-3, 48 hr) was 896 nM, the EC50 (OCI-AML3; OCI-AML-3, 72 hr) was 971 nM and the EC50 (OCI-AML3; OCI-AML-3, 96 hr) was 418 nM.
